# Data published in patent US20040077651A1, “Remedies for cancer” (priority 2000, published 2004).
# Target: T1, Human type-X sPLA2 (Homo sapiens, UniProt O15496)
# T1 construct: made in house; unpurified culture supernatant
# T1 sequence (O15496 43-165): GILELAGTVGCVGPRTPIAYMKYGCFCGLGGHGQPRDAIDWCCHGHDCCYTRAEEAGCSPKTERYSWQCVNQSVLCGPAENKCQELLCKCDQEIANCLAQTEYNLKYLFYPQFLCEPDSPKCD
# Assay: Type-X sPLA2 inhibition test (chromogenic assay, diheptanoylthio PC)
# Assay type: biochemical
# Conditions: culture supernatant of CHO cells expressing human type-X sPLA2, 30 min at 40° C., absorbance at 405 nm
# Description: cDNA sequence encoding human type-X sPLA2 (Cupillard et al., J. Biol. Chem, 1997, 272, 15745-15752) was inserted into the downstream region of the promoter of pSVL SV40 Late Promoter Expression Vector (Amersham Pharmacia Biotech Inc.) that is an expression vector for mammalian cells. The obtained expression vector was transfected into the host CHO cells with a LipofectAMINE reagent (Gibco BRL Inc.) according to the manufacture's instruction to obtain the CHO cells stably expressing human type-X sPLA2. The transfected cell was cultured in α-MEM medium containing 10% fetal calf serum for 3 days and its culture supernatant was used for the measurement of each enzyme activity.
# In order to identify and evaluate an inhibitor of type-X sPLA2, the following chromogenic assay is utilized. This assay has been applied for high volume screening using a 96-well microtiterplate. A general explanation for this assay is described in “Analysis of Human Synovial Fluid Phospholipase A2 on Short Chain Phosphatidylcholine-Mixed Micelles: Development of a Spectrophotometric Assay Suitable for a Micortiterplate Reader” (Analytical Biochemistry, 204, pp 190-197, 1992 by Laure. J. Reynolds. Lori L. Hughes and Edward A. Dennis.
# Test compounds (or solvent blank) were added according to the alignment of plates that had been previously set. Human type-X sPLA2 was incubated (30 min at 40° C. (15 μl/well)) with diheptanoylthio PC (1 mM) in the presence of Triton X-100 (0.3 mM) and 5,5′-dithiobis(2-nitrobenzoic acid) (125 μM) in Tris-HCl buffer (25 mM, pH 7.5) containing CaCl2 (10 mM), KCl (100 mM), and bovine serum albumin (1.0 mg/mL). The changes in the absorbance at 405 nm were measured and the inhibition activities were calculated.
# The IC50 value was determined by plotting the log concentration of the above-mentioned compounds (1)-(19) with respect to their inhibition values within 10% to 90% inhibitory range.
row,Structure (SMILES),IC50 [nM]
1,NC(=O)C1=CCCc2c1c1c(OCC(=O)O)cccn1c2Cc1ccccc1 [Compound 7],5
2,NC(=O)c1cccc2c1c1c(OCC(=O)O)cc(-c3ccco3)cc1n2Cc1ccccc1 [Compound 11],10
3,CCCc1c(C(=O)C(N)=O)c2c(OCC(=O)O)nc(C)cn2c1CCc1ccccc1 [Compound 6],17
